# Measurements reported in patent US8952024B2, “Herbicidal pyrimidone derivatives” (E I du Pont de Nemours and Company, priority 2009, dated 2015).
# Experiments:
# Assay type in all cases: in vivo
# [1] = system: large crabgrass (Digitaria sanguinalis); assay: Test A pre-/postemergence plant response; conditions: for Crabgrass, Large plant response rating: visual injury, 0 to 100 scale (0 no effect, 100 complete control), approx. ten days
# Method in brief: (§1)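 Greenhouse pots of loam/sand received directed preemergence soil sprays or postemergence sprays (plants 2–10 cm, 1–2 leaf stage), compounds formulated in non-phytotoxic solvent with surfactant. Injury was rated visually versus untreated controls after about ten days on a 0 (no effect) to 100 (complete control) scale.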
# [2] = system: barnyardgrass (Echinochloa crus-galli); assay: Test A pre-/postemergence plant response; conditions: for Barnyardgrass plant response rating: visual injury, 0 to 100 scale (0 no effect, 100 complete control), approx. ten days
# Method in brief: as §1
# [3] = system: pigweed (Amaranthus retroflexus); assay: Test A pre-/postemergence plant response; conditions: for Pigweed plant response rating: visual injury, 0 to 100 scale (0 no effect, 100 complete control), approx. ten days
# Method in brief: as §1
# [4] = system: giant foxtail (Setaria faberii); assay: Test A pre-/postemergence plant response; conditions: for Foxtail, Giant plant response rating: visual injury, 0 to 100 scale (0 no effect, 100 complete control), approx. ten days
# Method in brief: as §1
# [5] = system: velvetleaf (Abutilon theophrasti); assay: Test A pre-/postemergence plant response; conditions: for Velvetleaf plant response rating: visual injury, 0 to 100 scale (0 no effect, 100 complete control), approx. ten days
# Method in brief: as §1
# [6] = system: morningglory (Ipomoea spp.); assay: Test A pre-/postemergence plant response; conditions: for Morningglory plant response rating: visual injury, 0 to 100 scale (0 no effect, 100 complete control), approx. ten days
# Method in brief: as §1
# corn (Zea mays) = assay: Test A pre-/postemergence plant response; conditions: for Corn plant response rating: visual injury, 0 to 100 scale (0 no effect, 100 complete control), approx. ten days
# Method in brief: as §1
# [7] = system: wheat (Triticum aestivum); assay: Test A pre-/postemergence plant response; conditions: for Wheat plant response rating: visual injury, 0 to 100 scale (0 no effect, 100 complete control), approx. ten days
# Method in brief: as §1
# [8] = system: ducksalad (Heteranthera limosa); assay: Test B flooded paddy test; conditions: for Plant response rating, Ducksalad: Flood (flooded paddy test), 13 to 15 days; for Ducksalad plant response rating: Flood, 31 g ai/ha, scale 0 to 100 (0 no effect, 100 complete control)
# Method in brief: (§2)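 Seedlings reaching 2 leaves are flooded 3 cm deep; test material is delivered to that water, which stays at the same depth. Plants remain in a greenhouse 13–15 days and are then scored by eye versus controls from 0 to 100.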
# [9] = system: barnyardgrass (Echinochloa crus-galli); assay: Test B flooded paddy test; conditions: for Plant response rating, Barnyardgrass: Flood (flooded paddy test), 13 to 15 days; for Barnyardgrass plant response rating: Flood, 31 g ai/ha, scale 0 to 100 (0 no effect, 100 complete control)
# Method in brief: as §2
# rice (Oryza sativa) = assay: Test B flooded paddy test; conditions: for Plant response rating, Rice: Flood (flooded paddy test), 13 to 15 days; for Rice plant response rating: Flood, 31 g ai/ha, scale 0 to 100 (0 no effect, 100 complete control)
# Method in brief: as §2
# [10] = system: umbrella sedge (Cyperus difformis); assay: Test B flooded paddy test; conditions: for Plant response rating, Sedge, Umbrella: Flood (flooded paddy test), 13 to 15 days; for Sedge, Umbrella plant response rating: Flood, 31 g ai/ha, scale 0 to 100 (0 no effect, 100 complete control)
# Method in brief: as §2
# [11] = Postemergence, 125 g ai/ha, 0 to 100 scale where 0 is no effect and 100 is complete control
# [12] = Preemergence, 125 g ai/ha, 0 to 100 scale, 0 = no effect, 100 = complete control
# [13] = Preemergence, 500 g ai/ha, 0 to 100 scale, 0 = no effect, 100 = complete control
# [14] = 125 g ai/ha, scale 0 to 100, 0 is no effect, 100 is complete control
# [15] = 250 g ai/ha, flooded paddy test, visual rating on 0 to 100 scale (0 no effect, 100 complete control) after 13 to 15 days
# [16] = 62 g ai/ha, scale of 0 to 100 where 0 is no effect and 100 is complete control
compound,measurement,setting,value
COc1ccc(-n2c(-c3cccc(Br)c3)ncc(C(=O)C3=C(O)CCCC3=O)c2=O)cc1 [Compound 176],"Plant response rating, Crabgrass, Large",[1]; [11],10
same,"Crabgrass, Large plant response rating","[1]; Postemergence, 500 g ai/ha",60
same,"Plant response rating, Crabgrass, Large",[1]; [12],0
same,"Plant response rating, Crabgrass, Large",[1]; [13],20
same,"Plant response rating, Barnyardgrass",[2]; [11],50
same,Barnyardgrass plant response rating,"[2]; Postemergence, 500 g ai/ha",90
same,"Plant response rating, Barnyardgrass",[2]; [12],10
same,"Plant response rating, Barnyardgrass",[2]; [13],30
same,"Plant response rating, Pigweed",[3]; [11],100
same,Pigweed plant response rating,"[3]; Postemergence, 500 g ai/ha",100
same,"Plant response rating, Pigweed",[3]; [12],60
same,"Plant response rating, Pigweed",[3]; [13],100
same,"Plant response rating, Foxtail, Giant",[4]; [11],10
same,"Foxtail, Giant plant response rating","[4]; Postemergence, 500 g ai/ha",70
same,"Plant response rating, Foxtail, Giant",[4]; [12],10
same,"Plant response rating, Foxtail, Giant",[4]; [13],50
same,"Plant response rating, Velvetleaf",[5]; [11],80
same,Velvetleaf plant response rating,"[5]; Postemergence, 500 g ai/ha",90
same,"Plant response rating, Velvetleaf",[5]; [12],10
same,"Plant response rating, Velvetleaf",[5]; [13],50
same,"Plant response rating, Morningglory",[6]; [11],0
same,Morningglory plant response rating,"[6]; Postemergence, 500 g ai/ha",50
same,"Plant response rating, Morningglory",[6]; [12],0
same,"Plant response rating, Morningglory",[6]; [13],20
same,"Plant response rating, Corn",corn (Zea mays); [11],0
same,Corn plant response rating,"corn (Zea mays); Postemergence, 500 g ai/ha",10
same,"Plant response rating, Corn",corn (Zea mays); [12],0
same,"Plant response rating, Corn",corn (Zea mays); [13],0
same,"Plant response rating, Wheat",[7]; [11],0
same,Wheat plant response rating,"[7]; Postemergence, 500 g ai/ha",0
same,"Plant response rating, Wheat",[7]; [12],0
same,"Plant response rating, Wheat",[7]; [13],0
same,"Plant response rating, Ducksalad",[8]; [14],75
same,Ducksalad plant response rating,[8],40
same,"Plant response rating, Barnyardgrass",[9]; [14],0
same,Barnyardgrass plant response rating,[9],0
same,"Plant response rating, Rice",rice (Oryza sativa); [14],20
same,Rice plant response rating,rice (Oryza sativa),15
same,"Plant response rating, Sedge, Umbrella",[10]; [14],85
same,"Sedge, Umbrella plant response rating",[10],70
Cc1cccc(-c2ncc(C(=O)C3=C(O)CCCC3=O)c(=O)n2-c2cc(F)ccc2C)c1 [Compound 178],"Plant response rating, Crabgrass, Large",[1]; [11],50
same,"Crabgrass, Large plant response rating","[1]; Postemergence, 500 g ai/ha",80
same,"Plant response rating, Crabgrass, Large",[1]; [12],10
same,"Plant response rating, Crabgrass, Large",[1]; [13],70
same,"Plant response rating, Barnyardgrass",[2]; [11],80
same,Barnyardgrass plant response rating,"[2]; Postemergence, 500 g ai/ha",90
same,"Plant response rating, Barnyardgrass",[2]; [12],0
same,"Plant response rating, Barnyardgrass",[2]; [13],50
same,"Plant response rating, Pigweed",[3]; [11],60
same,Pigweed plant response rating,"[3]; Postemergence, 500 g ai/ha",80
same,"Plant response rating, Pigweed",[3]; [12],0
same,"Plant response rating, Pigweed",[3]; [13],40
same,"Plant response rating, Foxtail, Giant",[4]; [11],50
same,"Foxtail, Giant plant response rating","[4]; Postemergence, 500 g ai/ha",80
same,"Plant response rating, Foxtail, Giant",[4]; [12],10
same,"Plant response rating, Foxtail, Giant",[4]; [13],50
same,"Plant response rating, Velvetleaf",[5]; [11],90
same,Velvetleaf plant response rating,"[5]; Postemergence, 500 g ai/ha",100
same,"Plant response rating, Velvetleaf",[5]; [12],0
same,"Plant response rating, Velvetleaf",[5]; [13],60
same,"Plant response rating, Morningglory",[6]; [11],50
same,Morningglory plant response rating,"[6]; Postemergence, 500 g ai/ha",100
same,"Plant response rating, Morningglory",[6]; [12],0
same,"Plant response rating, Morningglory",[6]; [13],40
same,"Plant response rating, Corn",corn (Zea mays); [11],0
same,Corn plant response rating,"corn (Zea mays); Postemergence, 500 g ai/ha",70
same,"Plant response rating, Corn",corn (Zea mays); [12],0
same,"Plant response rating, Corn",corn (Zea mays); [13],0
same,"Plant response rating, Wheat",[7]; [11],0
same,Wheat plant response rating,"[7]; Postemergence, 500 g ai/ha",30
same,"Plant response rating, Wheat",[7]; [12],0
same,"Plant response rating, Wheat",[7]; [13],0
same,"Plant response rating, Flood, Ducksalad",[8]; [15],100
same,"Plant response rating, Ducksalad",[8]; [16],75
same,"Plant response rating, Ducksalad",[8]; [14],100
same,Ducksalad plant response rating,[8],75
same,"Plant response rating, Flood, Barnyardgrass",[9]; [15],80
same,"Plant response rating, Barnyardgrass",[9]; [16],20
same,"Plant response rating, Barnyardgrass",[9]; [14],60
same,Barnyardgrass plant response rating,[9],20
same,"Plant response rating, Flood, Rice",rice (Oryza sativa); [15],70
same,"Plant response rating, Rice",rice (Oryza sativa); [16],20
same,"Plant response rating, Rice",rice (Oryza sativa); [14],70
same,Rice plant response rating,rice (Oryza sativa),0
same,"Plant response rating, Flood, Sedge, Umbrella",[10]; [15],95
same,"Plant response rating, Sedge, Umbrella",[10]; [16],85
same,"Plant response rating, Sedge, Umbrella",[10]; [14],95
same,"Sedge, Umbrella plant response rating",[10],55
O=C1CCCC(O)=C1C(=O)c1cnc(-c2cc(F)cc(F)c2)n(CC2CCCO2)c1=O (stereo not shown) [Compound 180],"Plant response rating, Crabgrass, Large",[1]; [11],90
same,"Crabgrass, Large plant response rating","[1]; Postemergence, 500 g ai/ha",100
same,"Plant response rating, Crabgrass, Large",[1]; [12],80
same,"Plant response rating, Crabgrass, Large",[1]; [13],100
same,"Plant response rating, Barnyardgrass",[2]; [11],90
same,Barnyardgrass plant response rating,"[2]; Postemergence, 500 g ai/ha",100
same,"Plant response rating, Barnyardgrass",[2]; [12],30
same,"Plant response rating, Barnyardgrass",[2]; [13],80
same,"Plant response rating, Pigweed",[3]; [11],100
same,Pigweed plant response rating,"[3]; Postemergence, 500 g ai/ha",100
same,"Plant response rating, Pigweed",[3]; [12],90
same,"Plant response rating, Pigweed",[3]; [13],100
same,"Plant response rating, Foxtail, Giant",[4]; [11],70
same,"Foxtail, Giant plant response rating","[4]; Postemergence, 500 g ai/ha",100
same,"Plant response rating, Foxtail, Giant",[4]; [12],30
same,"Plant response rating, Foxtail, Giant",[4]; [13],70
same,"Plant response rating, Velvetleaf",[5]; [11],100
same,Velvetleaf plant response rating,"[5]; Postemergence, 500 g ai/ha",100
same,"Plant response rating, Velvetleaf",[5]; [12],80
same,"Plant response rating, Velvetleaf",[5]; [13],100
same,"Plant response rating, Morningglory",[6]; [11],40
same,Morningglory plant response rating,"[6]; Postemergence, 500 g ai/ha",100
same,"Plant response rating, Morningglory",[6]; [12],0
same,"Plant response rating, Corn",corn (Zea mays); [11],10
same,Corn plant response rating,"corn (Zea mays); Postemergence, 500 g ai/ha",40
same,"Plant response rating, Corn",corn (Zea mays); [12],0
same,"Plant response rating, Corn",corn (Zea mays); [13],0
same,"Plant response rating, Wheat",[7]; [11],0
same,Wheat plant response rating,"[7]; Postemergence, 500 g ai/ha",30
same,"Plant response rating, Wheat",[7]; [12],0
same,"Plant response rating, Wheat",[7]; [13],20
same,"Plant response rating, Ducksalad",[8]; [14],75
same,Ducksalad plant response rating,[8],60
same,"Plant response rating, Barnyardgrass",[9]; [14],15
same,Barnyardgrass plant response rating,[9],0
same,"Plant response rating, Rice",rice (Oryza sativa); [14],30
same,Rice plant response rating,rice (Oryza sativa),15
same,"Plant response rating, Sedge, Umbrella",[10]; [14],65
same,"Sedge, Umbrella plant response rating",[10],20
